Format in all cases: cell-based, Saccharomyces cerevisiae
Assay [1] deals with S. cerevisiae PB1X-9B(pRS202). In words: Peptide transport assay, accumulation of KLG-[3H]L, PB1X-9B(pRS202). The method, then:
(§1) To determine if S. cerevisiae transformants harboring pOPT1 could accumulate a radiolabeled tetrapeptide, uptake assays were performed with the radiolabeled substrate KLG-[^3H]L SEQ ID NO:7 with cells grown to log phase in SC-Ura with either ammonium sulfate or 0.1% proline as a nitrogen source. […] This higher initial rate can be explained by overexpression due to high copy number or alternatively by the lack of requisite regulatory elements which may be absent in the heterologous host.
Uptake of KLG-[^3H]L SEQ ID NO:7 was determined using a protocol for uptake of dipeptides as described by Basrai et al. (1995) with a few modifications. S. cerevisiae cultures were grown overnight to exponential phase in SC-Ura medium. Cells were harvested by centrifugation, and resuspended in 2% glucose at a cell density of 2×10^8 cells/ml. […] The yeast cells retained on the filter were washed twice with ice-cold distilled water, once with room temperature distilled water, and the residual radioactivity was measured by liquid scintillation. […] The uptake results, calculated on the basis of 50% counting efficiency (determined using L-[^3H]lysine as a standard, and the specific activity of the peptide), were expressed as nmol of peptide uptake per minute per mg cell dry weight.

Assay [2] concerns S. cerevisiae PB1X-9B(pOPT1). Conditions: ammonium sulfate as nitrogen source; 0.38 μmoles per 6 mm disk; 24-48 hr. As for the experimental part:
(§2) S. cerevisiae PB1X-9B is sensitive to the toxic amino acid ethionine Eth) but is resistant to ethionine containing di-, tri-, tetra-, and pentapeptides. Disk sensitivity assays was utilized to determine if cells transformed with pOPT1 were sensitive to toxic peptides and whether this sensitivity was dependent upon nitrogen source.
(§3) Sensitivity to ethionine, a toxic methionine analog, and ethionine-containing peptides was determined by the method described by Island et al. (1987). Cells were grown overnight to exponential phase of growth in SC, washed, and resuspended at 5×10^6 cells /ml in sterile water. One ml of this cell suspension was added to 3 ml molten Noble agar (0.8% final concentration) and overlayed on 20 ml of the same medium used to prepare the inoculum. A disk (6 mm diameter, Difco) was placed on the plate and 0.38 μmoles of the compounds to be tested were applied to the disks. Zones of inhibition were measured after 24-48 hr incubation at 30 iC. Each test comprised at least three independent assays and the results represented in the Tables are means of the values obtained. Maximum variation between the zones of inhibition measured for each test were ^23 mm. A value of 7 mm for the diameter of zone of inhibition represents a minimal growth inhibition value as the disk diameter was 6 mm. Photodocumentation of sensitivity assays was done with a Umax Scanner and processed through Adobe Photoshop.

Assay [3] has as its system S. cerevisiae PB1X-9B. In words: Sensitivity of untransformed S. cerevisiae PB1X-9B to ethionine and ethionine peptides. The method, then:
as §2
as §3, with “Photodocumentation of sensitivity assays was done with a Umax Scanner and processed through Adobe Photoshop.” left out

The test system of assay [4] is S. cerevisiae PB1X-9B(pOPT1). The assay can be described thus: Peptide transport assay, accumulation of KLG-[3H]L, PB1X-9B(pOPT1). As for the experimental part: as §1
Uptake of KLG-[^3H]L SEQ ID NO:7 was determined using a protocol for uptake of dipeptides as described by Basrai et al. (1995) with a few modifications. S. cerevisiae cultures were grown overnight to exponential phase in SC-Ura medium. Cells were harvested by centrifugation, and resuspended in 2% glucose at a cell density of 2×10^8 cells/ml. Two hundred and fifty microliters of cell suspension were added to an equal volume of an uptake assay reaction mixture and incubated at 30iC. The final concentrations of the components in the uptake assay solution were: glucose (2%, w/v), 10 mM sodium citrate/potassium phosphate buffer (pH 5.0), and KLG-[^3H]L SEQ ID NO:7 (150 μM; 8.5 mCi/mmol). Competition experiments were done in the presence of either 1.5 mM L, KL, KLG, KLLG SEQ ID NO:6, or KLLLG SEQ ID NO:8. At various time points, 90 μl portions were removed and filtered through a membrane. The yeast cells retained on the filter were washed twice with ice-cold distilled water, once with room temperature distilled water, and the residual radioactivity was measured by liquid scintillation. There was no peptide adsorption to the cell surface or sticking to filters since at 0i C the counts were at background level. The uptake results, calculated on the basis of 50% counting efficiency (determined using L-[^3H]lysine as a standard, and the specific activity of the peptide), were expressed as nmol of peptide uptake per minute per mg cell dry weight.

Where [5] appears, read: cells grown in SC with ammonium sulfate, 150 μM substrate.

This note sets out measurements from patent publication US6441134B1, “Isolated Candida albicans oligopeptide transporter gene” (The University of Tennessee Research Corporation, dated 2002).

Non-standard residues stand in square brackets, D forms with d. Residues, ends and D or L forms follow the SMILES beside them. No end group written: not given here.

`CC(C)C[C@H](NC(=O)CNC(=O)[C@H](CC(C)C)NC(=O)[C@@H](N)CCCCN)C(=O)O` [KLGL, Lysyl-Leucyl-Glycyl-Leucine] (H-KLGL-OH): in assay [1] (cells grown in SC-Ura with 0.1% proline), the accumulation of tetrapeptide entry was “did accumulate”.
For `CCSCC[C@H](N)C(=O)O` [ethionine, Ethionine], the “zone of growth inhibition” value in assay [2] came out at 33 mm. The “sensitivity / resistance of the strain” value in assay [3] is on record as “sensitive”.
As to “Lys-Leu-Gly-[^3H]Leu (KLG[3H‑Leu]) [KLG-[^3H]L]”, the “uptake rate of KLG-[3H]L, no competitor” value in assay [4] (SC-Ura with ammonium sulfate, 150 μM substrate, best fit of slope over 12 min) is given as 0.24 nm/min/mg of dry weight. Besides, the “initial rate of uptake compared to C. albicans SC5314” value in assay [4] (both grown in SC with ammonium sulfate) was “higher initial rate of uptake”. The “uptake rate of radiolabeled tetrapeptide” value in assay [4] (setting [5]) is “significant uptake rate”. Further, in assay [4] (growth media with proline as nitrogen source), the “initial uptake rate, PB1X-9B(pOPT1) relative to PB1X-9B(pRS202)” value is on record as 2.5 times. Further, in assay [1] (setting [5]), the “uptake of radiolabeled tetrapeptide” value is “no uptake”.
